Experimental data taken from paper PMC10657444, “Design and evaluation of tadpole-like conformational antimicrobial peptides” (Communications Biology, 2023).
≈ marks a conversion by molar mass, not a printed value. Where two headings read alike, the source gives them in different places. Non-standard residues stand in square brackets, D forms with d. Residues, ends and D or L forms follow the SMILES beside them. *: point of attachment. Octanoyl = CCCCCCCC(=O)*

How the values were obtained:
E. coli S = type: cell-based, Escherichia coli
Source text: (§1) Bacteria were cultivated in Luria-Bertani (LB) broth.

E. coli ATCC 25922 = type: cell-based, Escherichia coli
Source text: as §1

A. baumannii 1318 = type: cell-based, Acinetobacter baumannii
Source text: as §1

A. baumannii 1337 = type: cell-based, Acinetobacter baumannii
Source text: as §1

K. pneumoniae 3026 = type: cell-based, Klebsiella pneumoniae
Source text: as §1

[1] = system: K. pneumoniae ATCC 700603; type: cell-based, Klebsiella pneumoniae
Source text: as §1

MRSA USA 300 = type: cell-based, Staphylococcus aureus
Source text: as §1

MRSA ATCC 43300 = type: cell-based, Staphylococcus aureus
Source text: as §1

MRSA 3393 = type: cell-based, Staphylococcus aureus
Source text: as §1

Compound | MIC Gram- E. coli S (E. coli S) [µM] | MIC Gram- E. coli ATCC 25922 (E. coli ATCC 25922) [µM] | MIC Gram- A. b 1318 (A. baumannii 1318) [µM] | MIC Gram- A. b 1337 (A. baumannii 1337) [µM] | MIC Gram- K. p 3026 (K. pneumoniae 3026) [µM] | MIC Gram- K. p ATCC 700603 [1] [µM] | MIC Gram+ MRSA USA 300 (MRSA USA 300) [µM] | MIC Gram+ MRSA ATCC 43300 (MRSA ATCC 43300; ATCC 43300) [µM] | MIC Gram+ MRSA 3393 (MRSA 3393; 3393) [µM] | MIC Gram+ MRSA ATCC 43300 (MRSA ATCC 43300) [µM] | MIC Gram+ MRSA 3393 (MRSA 3393) [µM]
CC[C@@H](C)[C@@H](NC(=O)[C@@H](CCCNC(=N)N)NC(=O)[C@@H](CCCNC(=N)N)NC(=O)[C@@H](CC(C)C)NC(=O)[C@@H](Cc1ccccc1)NC(=O)[C@H](N)CCCNC(=N)N)C(=O)N[C@H](Cc1ccccc1)C(=O)N[C@H](Cc1ccccc1)C(=O)N[C@H](Cc1ccccc1)C(=O)N[C@H](Cc1ccccc1)C(N)=O [D-HT2] (H-[dR][dF][dL][dR][dR][dI][dF][dF][dF][dF]-NH2; N-terminus assumed) | 25 (≈ 36.2 µg/mL) | 50 (≈ 72.4 µg/mL) | 6.25 (≈ 9.05 µg/mL) | 12.5 (≈ 18.1 µg/mL) | > 100 | 100 (≈ 145 µg/mL) | 6.25 (≈ 9.05 µg/mL) | 6.25 (≈ 9.05 µg/mL) | 6.25 (≈ 9.05 µg/mL) | – | –
CC[C@H](C)[C@H](NC(=O)[C@@H](CCCNC(=N)N)NC(=O)[C@H](CCCNC(=N)N)NC(=O)[C@H](CC(C)C)NC(=O)[C@H](Cc1ccccc1)NC(=O)[C@H](Cc1ccccc1)NC(=O)[C@H](Cc1ccccc1)NC(=O)[C@@H](N)Cc1ccccc1)C(=O)N[C@@H](Cc1ccccc1)C(N)=O [F-SHf(R^5,dR^6)] (H-FFFFLR[dR]IF-NH2; N-terminus assumed) | 25 (≈ 32.3 µg/mL) | > 100 | 25 (≈ 32.3 µg/mL) | 25 (≈ 32.3 µg/mL) | > 100 | > 100 | 3.13 (≈ 4.04 µg/mL) | 3.13 (≈ 4.04 µg/mL) | 3.13 (≈ 4.04 µg/mL) | – | –
CC[C@H](C)[C@H](NC(=O)[C@H](CCCNC(=N)N)NC(=O)[C@@H](CCCNC(=N)N)NC(=O)[C@H](CC(C)C)NC(=O)[C@H](Cc1ccccc1)NC(=O)[C@H](Cc1ccccc1)NC(=O)[C@H](Cc1ccccc1)NC(=O)[C@@H](N)Cc1ccccc1)C(=O)N[C@@H](Cc1ccccc1)C(N)=O [F-SHf(dR^5)] (H-FFFFL[dR]RIF-NH2; N-terminus assumed) | 25 (≈ 32.3 µg/mL) | > 100 | 25 (≈ 32.3 µg/mL) | 25 (≈ 32.3 µg/mL) | > 100 | > 100 | 3.13 (≈ 4.04 µg/mL) | 3.13 (≈ 4.04 µg/mL) | 3.13 (≈ 4.04 µg/mL) | – | –
CC[C@H](C)[C@H](NC(=O)[C@@H](CCCNC(=N)N)NC(=O)[C@@H](CCCNC(=N)N)NC(=O)[C@H](CC(C)C)NC(=O)[C@H](Cc1ccccc1)NC(=O)[C@H](Cc1ccccc1)NC(=O)[C@H](Cc1ccccc1)NC(=O)[C@@H](N)Cc1ccccc1)C(=O)N[C@@H](Cc1ccccc1)C(N)=O [F-SHf(dR^5, 6)] (H-FFFFL[dR][dR]IF-NH2; N-terminus assumed) | 6.25 (≈ 8.07 µg/mL) | > 100 | 12.5 (≈ 16.1 µg/mL) | 25 (≈ 32.3 µg/mL) | 25 (≈ 32.3 µg/mL) | 25 (≈ 32.3 µg/mL) | 3.13 (≈ 4.04 µg/mL) | 3.13 (≈ 4.04 µg/mL) | 3.13 (≈ 4.04 µg/mL) | – | –
CC[C@H](C)[C@H](NC(=O)[C@H](CCCNC(=N)N)NC(=O)[C@H](CCCNC(=N)N)NC(=O)[C@H](CC(C)C)NC(=O)[C@H](Cc1ccccc1)NC(=O)[C@H](Cc1ccccc1)NC(=O)[C@H](Cc1ccccc1)NC(=O)[C@H](Cc1ccccc1)NC(=O)[C@@H](N)Cc1ccccc1)C(=O)N[C@@H](Cc1ccccc1)C(N)=O [FF-SHf(R^5)] (H-FFFFFLRRIF-NH2; N-terminus assumed) | 100 (≈ 144 µg/mL) | > 100 | 50 (≈ 71.9 µg/mL) | > 100 | > 100 | > 100 | 3.13 (≈ 4.5 µg/mL) | 1.57 (≈ 2.26 µg/mL) | – | 1.57 (≈ 2.26 µg/mL) | 1.57 (≈ 2.26 µg/mL)
CCCCCCCC(=O)N[C@@H](Cc1ccccc1)C(=O)N[C@@H](CC(C)C)C(=O)N[C@@H](CO)C(=O)N[C@@H](CCCNC(=N)N)C(=O)N[C@H](C(=O)N[C@@H](Cc1ccccc1)C(N)=O)[C@@H](C)CC [OA-SHf] (Octanoyl-FLSRIF-NH2) | > 100 | > 100 | > 100 | > 100 | > 100 | > 100 | > 100 | 50 (≈ 45.4 µg/mL) | > 100 | – | –
CC[C@H](C)[C@H](NC(=O)[C@H](CCCNC(=N)N)NC(=O)[C@H](CCC(=O)O)NC(=O)[C@H](CC(C)C)NC(=O)[C@H](Cc1ccccc1)NC(=O)[C@H](Cc1ccccc1)NC(=O)[C@@H](N)Cc1ccccc1)C(=O)N[C@@H](Cc1ccccc1)C(N)=O [SHf(E^5)] (H-FFFLERIF-NH2; N-terminus assumed) | > 100 | > 100 | > 100 | > 100 | > 100 | > 100 | > 100 | > 100 | > 100 | – | –
CC[C@H](C)[C@H](NC(=O)[C@H](CCCNC(=N)N)NC(=O)[C@H](CO)NC(=O)[C@H](CC(C)C)NC(=O)[C@H](Cc1ccccc1)NC(=O)[C@H](Cc1ccccc1)NC(=O)[C@@H](N)Cc1ccc(O)cc1)C(=O)N[C@@H](Cc1ccccc1)C(N)=O [SHf(Y^1)] (H-YFFLSRIF-NH2; N-terminus assumed) | > 100 | > 100 | > 100 | > 100 | > 100 | > 100 | – | > 100 | – | – | –
CC[C@H](C)[C@H](NC(=O)[C@H](CCCNC(=N)N)NC(=O)[C@H](CO)NC(=O)[C@H](CC(C)C)NC(=O)[C@H](Cc1ccccc1)NC(=O)[C@@H](N)Cc1ccccc1)C(=O)N[C@@H](Cc1ccccc1)C(N)=O [SHfΔ1F] (H-FFLSRIF-NH2) | > 100 | > 100 | > 100 | > 100 | > 100 | > 100 | > 100 | > 100 | > 100 | – | –
CC[C@H](C)[C@H](NC(=O)[C@H](CCCNC(=N)N)NC(=O)[C@H](CO)NC(=O)[C@H](CC(C)C)NC(=O)[C@@H](N)Cc1ccccc1)C(=O)N[C@@H](Cc1ccccc1)C(N)=O [SHfΔ2F] (H-FLSRIF-NH2; N-terminus assumed) | > 100 | > 100 | > 100 | > 100 | > 100 | > 100 | > 100 | > 100 | > 100 | – | –
CC[C@H](C)[C@H](NC(=O)[C@H](CCCNC(=N)N)NC(=O)[C@H](CCCNC(=N)N)NC(=O)[C@H](CC(C)C)NC(=O)[C@H](Cc1ccccc1)NC(=O)[C@H](Cc1ccccc1)NC(=O)[C@H](Cc1ccccc1)NC(=O)[C@@H](N)Cc1ccc(O)cc1)C(=O)N[C@@H](Cc1ccccc1)C(N)=O [Y-SHf(R^5)] (H-YFFFLRRIF-NH2; N-terminus assumed) | > 100 | 50 (≈ 65.4 µg/mL) | > 100 | 50 (≈ 65.4 µg/mL) | > 100 | > 100 | 6.25 (≈ 8.17 µg/mL) | 3.13 (≈ 4.09 µg/mL) | 3.13 (≈ 4.09 µg/mL) | – | –
CC[C@H](C)[C@H](NC(=O)[C@H](CCCNC(=N)N)NC(=O)[C@H](CO)NC(=O)[C@H](CC(C)C)NC(=O)[C@H](Cc1ccccc1)NC(=O)[C@H](Cc1ccccc1)NC(=O)[C@H](Cc1ccc(O)cc1)NC(=O)[C@@H](N)Cc1ccc(O)cc1)C(=O)N[C@@H](Cc1ccccc1)C(N)=O [Y-SHf(Y^1)] (H-YYFFLSRIF-NH2; N-terminus assumed) | > 100 | > 100 | > 100 | > 100 | > 100 | > 100 | – | – | – | – | –
